Results taken from patent US8841294B2, “Active ingredient combinations having insecticidal and acaricidal properties” (Bayer Cropscience AG, priority 1999, dated 2014).

Tests used:
Assay type in all cases: in vivo
[1] = test system: cotton aphid (Aphis gossypii); experiment: Aphis gossypii test; details: single active compound, 1.6 ppm, cotton leaves dipped
Description: (§1) To produce a suitable preparation of active compound, 1 part by weight of active compound is mixed with the stated amounts of solvent and emulsifier, and the concentrate is diluted with water to the desired concentrations.
Cotton leaves (Gossypium hirsutum) which are heavily infested by the cotton aphid (Aphis gossypii) are treated by being dipped into the preparation of active compound of the desired concentration.
After the desired period of time, the kill in % is determined. 100% means that all aphids have been killed; 0% means that none of the aphids have been killed. The kill rates that are determined are assessed using Colby's formula.

[2] = test system: larvae of the cotton aphid (Aphis gossypii); experiment: Aphis gossypii test/larval mortality; details: single active compound, 1.6 ppm, cotton leaves dipped
Description: Aphis Gossypii Test/Larval Mortality
as §1
Cotton leaves (Gossypium hirsutum) which are heavily infested by adults and larvae of the cotton aphid (Aphis gossypii) are treated by being dipped into the preparation of active compound of the desired concentration.
After the desired period of time, the kill of larvae in % is determined. 100% means that all larvae have been killed; 0% means that none of the larvae have been killed. The kill rates that are determined are assessed using Colby's formula.

[3] = test system: peach aphid (Myzus persicae); experiment: Myzus test; details: single active compound, 1.6 ppm, cabbage leaves dipped
Description: as §1
Cabbage leaves (Brassica oleracea) which are heavily infested by the peach aphid (Myzus persicae) are treated by being dipped into the preparation of active compound of the desired concentration.
After the desired period of time, the kill in % is determined. 100% means that all animals have been killed; 0% means that none of the animals have been killed. The kill rates determined are assessed using Colby's formula.

[4] = test system: larvae of the peach aphid (Myzus persicae); experiment: Myzus test/larval mortality; details: single active compound, 0.32 ppm, cabbage leaves dipped
Description: Myzus Test/Larval Mortality
as §1
Cabbage leaves (Brassica oleracea) which are heavily infested by adults and larvae of the peach aphid (Myzus persicae) are treated by being dipped into the preparation of active compound of the desired concentration.
After the desired period of time, the kill of the larvae in % is determined. 100% means that all larvae have been killed; 0% means that none of the larvae have been killed. The kill rates determined are assessed using Colby's formula.

CCC(C)(C)C(=O)OC1=C(c2ccc(Cl)cc2Cl)C(=O)OC12CCCCC2 [Ex. (Ia)]
Kill rates in % after 6d [1]: 0%
Kill rate in % after 6d (larvae) [2]: 0%
Kill rates in % after 1d [3]: 0%
Kill rates in % after 1d (larvae) [4]: 0%

N#C/N=C1\SCCN1Cc1ccc(Cl)nc1 [Ex. (IIk)]
Kill rates in % after 6d [1]: 55%
Kill rate in % after 6d (larvae) [2]: 60%

O=[N+]([O-])/N=C1\NCCN1Cc1ccc(Cl)nc1 [Ex. (IIa)]
Kill rates in % after 6d [1]: 85%
Kill rate in % after 6d (larvae) [2]: 80%
Kill rates in % after 1d [3]: 70%
Kill rates in % after 1d (larvae) [4]: 0%
